In PubChem BioAssay AID1963966 (Molecular Pharmacology Branch, DTP, NCI, 2024):

Test system: 935938-334-R-J1-PDC spheroids with HUVEC/MSC, viability
Assay: Anticancer human tumor 935938-334-R-J1-PDC patient-derived small intestine adenocarcinoma cell line growth inhibition [PI3K]
Conditions: for IC50: curve of first compound; for viability, T/C: stronger effect = lower value
From the text: Combinatorial screen of targeted agents with the PI3K inhibitors inavolisib, alpelisib, duvelisib, and copanlisib in multi-cell type tumor spheroids
A high-throughput screen of multi-cell type tumor spheroids was designed to identify active combinations of targeted small molecules and PI3K pathway inhibitors. Complex spheroids include a stromal component modeled by human endothelial cells (HUVEC) and fibroblasts modeled by human mesenchymal stem cells (MSCs). The concentration ranges selected for each drug and investigational agent were based upon clinically achievable concentrations if the clinical Cmax of the agent was known.
Compounds. The drugs and investigational agents: inavolisib (NSC800729), alpelisib (NSC765974), duvelisib (NSC772469), copanlisib (NSC816437), ipatasertib (NSC767898), afuresertib (NSC778305), talazoparib (NSC767125), sapanisertib (NSC764658), selumetinib (NSC741078), tovorafenib (DAY101, NSC766906), vemurafenib (NSC761431), ravoxertinib (NSC781343), sotorasib (NSC818433), MRTX1133 (NSC 836407), abemaciclib (NSC 768073), palbociclib (NSC758247), venetoclax (NSC 766270), SY5609 (NSC837396), enzalutamide (NSC755605), and darolutamide (NSC825331), were obtained from the National Cancer Institute (NCI) Developmental Therapeutics Program Chemical Repository. The FDA-approved anticancer drug set is available from the NCI Developmental Therapeutics Program. […] The stock solutions were prepared in dimethyl sulfoxide (DMSO, Sigma-Aldrich, St. Louis, MO, cat. D2650) at 800-fold the tested concentration and stored at -70 degrees C prior to their use. All drugs and investigational agents were tested over a range starting from a high concentration at or near the clinical Cmax and decreasing in half-log increments. If the clinical Cmax for an agent had not been determined, the highest concentration tested was 10 microM.
Cell Culture. All cells were maintained in an incubator at 37 degrees C and 5% CO2 with 95% humidity. The PDC lines were cultured according to standard operating procedures established by the NCI PDMR (https://pdmr.cancer.gov/sops/default.htm). All PDCs were thawed and cultured in Matrigel-coated flasks prepared with a working solution of 1X Ham's F-12 nutrient mix, without supplementation (Invitrogen, Waltham, MA, cat. 11765054), 100 U/mL penicillin-streptomycin (Invitrogen, cat. 15140122), and 2.5% Matrigel (Corning Inc., Corning, NY, cat. 354248) for the first three passages. The 354836-022-R-J1-PDC, 475296-252-R-J1-PDC, and 997726-040-R-J2-PDC lines were cultured in 6A media, which includes advanced DMEM/F-12 (Thermo Fisher Scientific, cat. 12634028), 10 mM HEPES (Thermo Fisher Scientific, cat. 15630080), 1X GlutaMAX supplement (Thermo Fisher Scientific, cat. 35050061), 0.1 mg/mL primocin (InvivoGen, San Diego, CA, cat. ant-pm-2), 10% defined fetal bovine serum, heat inactivated (HyClone Laboratories Inc., Logan, UT, cat. SH30070.03HI), 50% L-WRN conditioned media (ATCC, cat. CRL-3276), 1.25 mM N-Acetyl-L-cysteine (Sigma-Aldrich, cat. A9165), 10 mM nicotinamide (Sigma-Aldrich, cat. N0636), 1X B-27 supplement (Thermo Fisher Scientific, cat. 17504044), 1X N-2 supplement (Thermo Fisher Scientific, cat. 17502048), and 10 microM Y-27632 dihydrochloride (Tocris Bioscience, Bristol, United Kingdom, cat. 1254). The 624824-186-R-J2-PDC line was cultured in 6C/Colon 1B media, which includes all 6A media components plus 50 ng/mL human EGF recombinant protein (Thermo Fisher Scientific, cat. PHG0311). […]

[1] = second compound 0.00316 µM, first compound 0.0316 µM
[2] = second compound 0.00316 µM, first compound 0.1 µM
[3] = second compound 0.00316 µM, first compound 0.316 µM
[4] = second compound 0.00316 µM, first compound 1 µM
[5] = second compound 0.00316 µM, first compound 3.16 µM
[6] = second compound 0.00316 µM, first compound 10 µM
[7] = second compound 0.01 µM, first compound 0.0316 µM
[8] = second compound 0.01 µM, first compound 0.1 µM
[9] = second compound 0.01 µM, first compound 0.316 µM
[10] = second compound 0.01 µM, first compound 1 µM
[11] = second compound 0.01 µM, first compound 3.16 µM
[12] = second compound 0.01 µM, first compound 10 µM
[13] = second compound 0.0316 µM, first compound 0.0316 µM
[14] = second compound 0.0316 µM, first compound 0.1 µM
[15] = second compound 0.0316 µM, first compound 0.316 µM
[16] = second compound 0.0316 µM, first compound 1 µM
[17] = second compound 0.0316 µM, first compound 3.16 µM
[18] = second compound 0.0316 µM, first compound 10 µM
[19] = second compound 0.1 µM, first compound 0.0316 µM
[20] = second compound 0.1 µM, first compound 0.1 µM
[21] = second compound 0.1 µM, first compound 0.316 µM
[22] = second compound 0.1 µM, first compound 1 µM
[23] = second compound 0.1 µM, first compound 3.16 µM
[24] = second compound 0.1 µM, first compound 10 µM
[25] = second compound 0.316 µM, first compound 0.0316 µM
[26] = second compound 0.316 µM, first compound 0.1 µM
[27] = second compound 0.316 µM, first compound 0.316 µM
[28] = second compound 0.316 µM, first compound 1 µM
[29] = second compound 0.316 µM, first compound 3.16 µM
[30] = second compound 0.316 µM, first compound 10 µM
[31] = second compound 1 µM, first compound 0.0316 µM
[32] = second compound 1 µM, first compound 0.1 µM
[33] = second compound 1 µM, first compound 0.316 µM
[34] = second compound 1 µM, first compound 1 µM
[35] = second compound 1 µM, first compound 3.16 µM
[36] = second compound 1 µM, first compound 10 µM
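Further: compound exposure lasted seven days before viability was read.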
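Wherever viability, T/C is given: percent of vehicle DMSO treated spheroid viability so 100% = untreated.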

Compound `CC(Cn1ccc(-c2ccc(C#N)c(Cl)c2)n1)NC(=O)c1cc(C(C)O)[nH]n1` (centres undefined) + CC(Nc1ccc2c(c1)OCCn1cc(N3C(=O)OCC3C(F)F)nc1-2)C(N)=O has an IC50 (second compound 0.00316 µM) of over 10000 nM, an IC50 (second compound 0.01 µM) of over 10000 nM and an IC50 (second compound 0.0316 µM) of over 10000 nM. The IC50 (second compound 0.1 µM) was 8810 nM, the IC50 (second compound 0.316 µM) was 7050 nM and the IC50 (second compound 1 µM) was 4180 nM. For the same compound, the viability, T/C [1] was 66.3%, the viability, T/C [2] was 106% and the viability, T/C [3] was 91.7%. The viability, T/C [4] was 82.5%, the viability, T/C [5] was 105% and the viability, T/C [6] was 53.2%. For the same compound, the viability, T/C [7] was 89%, the viability, T/C [8] was 72.4% and the viability, T/C [9] was 97.3%. It also gave a viability, T/C [10] of 119%, a viability, T/C [11] of 96.7% and a viability, T/C [12] of 56.6%. The viability, T/C [13] was 78.5%, the viability, T/C [14] was 89.6% and the viability, T/C [15] was 96.6%. For the same compound, the viability, T/C [16] was 94.1%, the viability, T/C [17] was 90.5% and the viability, T/C [18] was 59.9%. It also gave a viability, T/C [19] of 61.6%, a viability, T/C [20] of 60.9% and a viability, T/C [21] of 83.8%. The viability, T/C [22] was 105%, the viability, T/C [23] was 84.9% and the viability, T/C [24] was 46.4%. It also gave a viability, T/C [25] of 96.7%, a viability, T/C [26] of 81.7% and a viability, T/C [27] of 68.2%. It also gave a viability, T/C [28] of 82.4%, a viability, T/C [29] of 75.3% and a viability, T/C [30] of 39.2%. For the same compound, the viability, T/C [31] was 64.9%, the viability, T/C [32] was 43% and the viability, T/C [33] was 83.7%. It also gave a viability, T/C [34] of 75.5%, a viability, T/C [35] of 49.6% and a viability, T/C [36] of 29%.
Compound `Cn1nccc1Nc1nccc(-c2ccn(C(CO)c3ccc(Cl)c(F)c3)c(=O)c2)n1` (centres undefined) + CC(Nc1ccc2c(c1)OCCn1cc(N3C(=O)OCC3C(F)F)nc1-2)C(N)=O has an IC50 (second compound 0.00316 µM) of 1400 nM, an IC50 (second compound 0.01 µM) of 835 nM and an IC50 (second compound 0.0316 µM) of 1430 nM. For the same compound, the IC50 (second compound 0.1 µM) was 777 nM, the IC50 (second compound 0.316 µM) was 505 nM and the IC50 (second compound 1 µM) was 147 nM. The viability, T/C [1] was 101%, the viability, T/C [2] was 92.6% and the viability, T/C [3] was 70.6%. The viability, T/C [4] was 57.2%, the viability, T/C [5] was 37.5% and the viability, T/C [6] was 37%. The viability, T/C [7] was 99.9%, the viability, T/C [8] was 82.1% and the viability, T/C [9] was 73.8%. For the same compound, the viability, T/C [10] was 41.4%, the viability, T/C [11] was 38.9% and the viability, T/C [12] was 33.7%. For the same compound, the viability, T/C [13] was 108%, the viability, T/C [14] was 81.9% and the viability, T/C [15] was 66%. For the same compound, the viability, T/C [16] was 59.5%, the viability, T/C [17] was 38.8% and the viability, T/C [18] was 31.4%. The viability, T/C [19] was 87.6%, the viability, T/C [20] was 71.7% and the viability, T/C [21] was 63.8%. It also gave a viability, T/C [22] of 48.6%, a viability, T/C [23] of 30.3% and a viability, T/C [24] of 25.8%. The viability, T/C [25] was 86.5%, the viability, T/C [26] was 71.2% and the viability, T/C [27] was 53%. For the same compound, the viability, T/C [28] was 44.7%, the viability, T/C [29] was 29.7% and the viability, T/C [30] was 21.6%. For the same compound, the viability, T/C [31] was 70.3%, the viability, T/C [32] was 55.1% and the viability, T/C [33] was 39.5%. It also gave a viability, T/C [34] of 30.1%, a viability, T/C [35] of 23.2% and a viability, T/C [36] of 23.4%.
